Assay results published in ChEMBL document CHEMBL5725469, “C17-aryl substituted betulinic acid analogs” (2018).
pEC50: −log10 of the molar value.

Assay: HIV cell culture assay: MT-2 cells and 293T cells were obtained from the NIH AIDS Research and Reference Reagent Program. MT-2 cells were propagated in RPMI 1640 media supplemented with 10% heat inactivated fetal bovine serum, 100 μg/mL penicillin G and up to 100 units/mL streptomycin. The 293T cells were propagated in DMEM media supplemented with 10% heat inactivated fetal bovine serum (FBS), 100 units/mL penicillin G and 100 μg/mL streptomycin. The proviral DNA clone of NL4-3 was obtained from the NIH AIDS Research and Reference Reagent Program. A recombinant NL4-3 virus, in which a section of the nef gene from NL4-3 was replaced with the Renilla luciferase gene, was used as a reference virus. In addition, residue Gag P373 was converted to P373S. Briefly, the recombinant virus was prepared by transfection of the altered proviral clone of NL4-3. Transfections were performed in 293T cells using LipofectAMINE PLUS from Invitrogen (Carlsbad, Calif.), according to manufacturer's instruction. The virus was titered in MT-2 cells using luciferase enzyme activity as a marker. Luciferase was quantitated using the Dual Luciferase kit from Promega (Madison, Wis.), with modifications to the manufacturer's protocol. The diluted Passive Lysis solution was pre-mixed with the re-suspended Luciferase Assay Reagent and the re-suspended Stop & Glo Substrate (2:1:1 ratio). Fifty (50) μL of the mixture was added to each aspirated well on assay plates and luciferase activity was measured immediately on a Wallac TriLux (Perkin-Elmer). Antiviral activities of inhibitors toward the recombinant virus were quantified by measuring luciferase activity in cells infected for 4-5 days with NLRluc recombinants in the presence serial dilutions of the inhibitor.
Type: cell-based

Compound | pEC50
C=C(C)[C@@H]1CC[C@]2(c3ncn(CCN4CCS(=O)(=O)CC4)n3)CC[C@]3(C)[C@H](CC[C@@H]4[C@@]5(C)CC=C(c6ccc(C(=O)O)cc6)C(C)(C)[C@@H]5CC[C@]43C)[C@@H]12 | < 7.00
C=C(C)[C@@H]1CC[C@]2(c3nnc(CN(C)C)o3)CC[C@]3(C)[C@H](CC[C@@H]4[C@@]5(C)CC=C(c6ccc(C(=O)O)cc6)C(C)(C)[C@@H]5CC[C@]43C)[C@@H]12 | < 7.00
C=C(C)[C@@H]1CC[C@]2(c3nnco3)CC[C@]3(C)[C@H](CC[C@@H]4[C@@]5(C)CC=C(c6ccc(C(=O)O)cc6)C(C)(C)[C@@H]5CC[C@]43C)[C@@H]12 | < 7.00
C=C(C)[C@@H]1CC[C@]2(C#Cc3ccsc3-c3nnn[nH]3)CC[C@]3(C)[C@H](CC[C@@H]4[C@@]5(C)CC=C(c6ccc(C(=O)O)cc6)C(C)(C)[C@@H]5CC[C@]43C)[C@@H]12 | > 7.00
C=C(C)[C@@H]1CC[C@]2(c3ncnn3C)CC[C@]3(C)[C@H](CC[C@@H]4[C@@]5(C)CC=C(c6ccc(C(=O)O)cc6)C(C)(C)[C@@H]5CC[C@]43C)[C@@H]12 | < 7.00
C=C(C)[C@@H]1CC[C@]2(c3nc[nH]n3)CC[C@]3(C)[C@H](CC[C@@H]4[C@@]5(C)CC=C(c6ccc(C(=O)O)cc6)C(C)(C)[C@@H]5CC[C@]43C)[C@@H]12 | < 7.00
